Experimental data from article PMC9561151, “Structural studies of the phosphoribosyltransferase involved in cobamide biosynthesis in methanogenic archaea and cyanobacteria” (Scientific Reports, 2022).

Assays:
MjCobT [1] = target: T1, MjCobT (Methanocaldococcus jannaschii, UniProt Q58993); experiment: X-ray crystal structure of complex, […] Å; type: binding
T1 construct: gene MJ1598; expressed in E. coli BL21-CodonPlus from pTEV5; N-terminal His6 tag cut with rTEV; Met 1 to Tyr 348 modelled; dimer

MjCobT [2] = target: T1, MjCobT; experiment: turnover in crystal, product seen by X-ray; type: biochemical; details: free base not seen in the structure
MjCobT [3] = target: T1, MjCobT; experiment: X-ray crystal structure of complex, […] Å; type: binding; details: formed in the crystal from NaMN and adenine; active site with nicotinic acid
[4] = target: the molecule itself; experiment: crystal structure; three crystal forms of MjCobT grown at room temperature: apo (P41212, 1 subunit per asymmetric unit), with NaMN and α-RP + nicotinic acid (P21, 2 subunits), with α-AMP + nicotinic acid (P21, 2 subunits); molecular replacement with 3L0Z

Molecule: Cc1cc2ncn([C@H]3O[C@H](COP(=O)(O)O)[C@@H](O)[C@H]3O)c2cc1C [α-RP]
- X-ray crystal structure of complex, 2.3 Å (MjCobT [1]; formed in the crystal from NaMN and DMB, active site of chain B with nicotinic acid, occupancy below 1.0): One subunit contains NaMN, whereas the second includes α-RP and nicotinic acid

Molecule: Nc1ncnc2[nH]cnc12 [adenine]
- turnover in crystal, product seen by X-ray (MjCobT [2]; 1 mM adenine and 1 mM NaMN soak, pH 8.5): the reaction product was prepared in situ by soaking the crystals in NaMN and adenine

Molecule: O=C([O-])c1ccc[n+]([C@@H]2O[C@H](COP(=O)(O)O)[C@@H](O)[C@H]2O)c1 [NaMN]
- X-ray crystal structure of complex, 2.3 Å (MjCobT [1]; crystals grown with DMB, soaked overnight in 1 mM NaMN, NaMN in active site of chain A): NaMN lies at the base of the active site for chain A

Molecule: Cc1cc2nc[nH]c2cc1C [DMB]
- turnover in crystal, product seen by X-ray (MjCobT [2]; 1 mM DMB in crystallization, NaMN soak overnight): During that time the enzyme catalyzed a transferase reaction

Molecule: Nc1ncnc2ncn([C@H]3O[C@H](COP(=O)(O)O)[C@@H](O)[C@H]3O)c12 [α-AMP]
- X-ray crystal structure of complex, 1.4 Å (MjCobT [3]): the crystals were highly ordered and the position of α-AMP is unequivocal

B1: Methanocaldococcus jannaschii nicotinate mononucleotide:base phosphoribosyltransferase (MjCobT) (enzyme)
chain: MSIIAINENGFLDKIKGRNPLFTCVISSIETTLSIPISGVHRDVIKYTPSADVELVFYGKSLTLKTPPIDATGSPTPATITRACVELKNIKNLHIDAGAFVKPKIPFIEIDEKPTGRIEEGKAMNNSKELYMKGYLLGKNLDAELLIVGESVPGGTTTALGVLLGLGYDAEGKVSSGSINNPHELKIKVVREGLKKAGINEKSSVFDVLNAVGDKMMPVVAGLAISFAERNKPVILAGGTQMSAVLAVIKEINKKVLDKNLIAIGTTEFVLNDKKGDLKGIVEQIGNVPVLASKFYFEKAKIEGLKNYCKGSVKEGVGAGGIAVYSIVNDLEPTKIREFIENKFYEWYKE
notes: CobT (NaMN:base phosphoribosyltransferase) of Methanocaldococcus jannaschii; the modelled chain runs from Met 1 to Tyr 348; also called PRTase from Methanocaldococcus jannaschii; source: E. coli BL21-CodonPlus, purified (80 °C heat step, Ni-NTA, rTEV cleavage, second Ni-NTA); not shown: His6, N-terminal, cleaved
- stoichiometry N [4]: 2
